Measurements reported in patent US20150322083A1, “(THIENO[2,3-b][1,5]BENZOXAZEPIN-4-YL)PIPERAZIN-1-YL COMPOUNDS AS SELECTIVE 5-HT2A INVERSE AGONISTS” (Eli Lilly and Company, priority 2014, published 2015).

Columns and labels:
[1] = target: T1, recombinant 5-HT2C receptors (human) (Homo sapiens, UniProt P28335); test: 5-HT2C competition binding assay ([125I]-(±)DOI, SPA)
T1 construct: expressed in transfected cells
Procedure: [^125I]-(±)DOI binding experiments are carried out in SPA 96-well format. Membranes used in this assay are prepared from AV-12 cells stably expressing recombinant 5-HT2C receptors (human). The incubation is initiated by the addition of a mixture of WGA PVT SPA beads (0.5 mg/well, Perkin Elmer (MA, USA), RPNQ0001) and 2.5 μg membranes to assay buffer (50 mM Tris-HCl, 10 mM MgCl2, 0.5 mM EDTA, 10 μM pargyline, 0.1% ascorbic acid, pH7.4) containing 0.2 nM [[^125I]-(±)DOI and varying concentrations of the test compound (10 point concentration response curves). Non-specific binding is determined in the presence of 20 μM 1-(1-naphthyl)piperazine. Samples are incubated for 4 hr. at room temperature (22° C.) and then read in a microplate scintillation counter.
Curves are evaluated using a 4-parameter logistic nonlinear equation to obtain the concentration of competitor causing 50% inhibition of radioligand binding (IC50). Equilibrium dissociation constants (Ki) are calculated according to the equation Ki=IC50/(1+L/Kd), where L equals the concentration of radioligand used in the experiment and Kd equals the equilibrium dissociation constant of the radioligand for the receptor, determined from standard saturation analysis or homologous competition experiments. […]

[2] = system: sleep and locomotor activity of rats; test: Sleep and behavioral monitoring in rats (EEG, EMG, motion); format: in vivo; conditions: rat; for Rebound Insomnia, Adj. Mean: NREM + REM sleep in 7th-9th hours post-treatment; for Rebound Insomnia, Adj. Mean / REM inhibition, Adj. Mean / Cumulative NREM sleep, Adj. Mean / Cumulative Total sleep, Adj. Mean / Locomotor Activity Intensity, Adj. Mean: difference from vehicle; for REM inhibition, Adj. Mean: REM sleep in first 12 hr. post-treatment; for Average Sleep Bout, Adj. Mean / Longest Sleep Bout / Cumulative NREM sleep, Adj. Mean / Cumulative Total sleep, Adj. Mean / Locomotor Activity Intensity, Adj. Mean: first 6 hr. post-treatment
Text: Sleep and behavioral monitoring in rats: The compounds of the present invention may be tested in rats for their ability to increase the amount of sleep or decrease sleep interruption or both without undesired effects such as inhibition of REM sleep, waking motor impairment, and/or rebound insomnia. Test animals are continuously monitored by electro-encephalograms (EEG), electromyograms (EMG), and motion to measure cumulative nonREM sleep, cumulative total sleep, average sleep bout duration, longest sleep bout duration, rebound insomnia, REM sleep inhibition and locomotor activity intensity during wakefulness. Methods for such studies are known in the art (see for example methods described in Edgar D M, Seidel W F. Modafinil induces wakefulness without intensifying motor activity or subsequent rebound hypersomnolence in the rat. J Pharmacology & Experimental Therapeutics 1997; 283: 757-769; van Gelder R N, Edgar D M, Dement W C. Real-time automated sleep scoring: validation of a microcomputer-based system for mice. Sleep 1991, 14: 48-55; and Gross B A, Walsh C M, Turakhia A A, Booth V, Mashour G A, Poe G R. Open-source logic-based automated sleep scoring software using electrophysiological recordings in rats. J Neurosci Methods. 2009; 184(1):10-8.) Studies are conducted as follows:
Animal preparation. Adult, male Wistar rats (approximately 270-300 g at time of surgery) are surgically fitted for chronic recording of EEG, EMG, and motion as follows: Rats are surgically prepared with a cranial implant consisting of four stainless steel screws for EEG recording (two frontal [3.9 mm anterior from bregma, and ±2.0 mm mediolaterally] and two occipital [6.4 mm posterior from bregma, ±5.5 mm mediolaterally]), and with two Teflon-coated stainless steel wires for EMG recording (positioned under the nuchal trapezoid muscles). All leads are soldered to a miniature connector (Microtech, Boothwyn, Pa.) prior to surgery. The implant assembly is affixed to the skull by the combination of the stainless steel EEG recording screws, cyanoacrylate applied between the implant connector and skull, and dental acrylic. Locomotor activity is monitored via a miniature transmitter (Minimitter PDT4000G, Philips Respironics, Bend, Oreg.) surgically placed into the abdomen. At least 3 weeks are allowed for recovery.
Recording environment. Each rat is housed individually within a microisolator cage modified with an inserted polycarbonate filter-top riser to allow more vertical headroom. A flexible cable that minimally restricts movement is connected at one end to a commutator afixed to the cage top and at the other end to the animal's cranial implant. Each cage is located within separate, ventilated compartments of a stainless steel sleep-wake recording chamber. Food and water are available ad libitum and the ambient temperature is maintained at about 23±1° C. A 24-hr light-dark cycle (LD 12:12) using fluorescent light is maintained throughout the study. Relative humidity averages approximately 50%. Animals are undisturbed for at least 30 hrs before and after each treatment.
Study design and dosing. The vehicle (placebo, methylcellulose 15 centipoise 0.25% in water) or one of the test compound dose levels is administered orally at 1 mL/kg pseudo-randomly such that no rat receives the same treatment twice, and no rat receives more than two of the 8 treatments in any one study. Each rat is removed from its cage for about a minute to be weighed and treated. At least 6 days “washout” period precede and follow each treatment.
Data collection. […]

[3] = PO, 6 hr. after treatment, 4 parameter logistic regression

T1 sequence (P28335 33-458): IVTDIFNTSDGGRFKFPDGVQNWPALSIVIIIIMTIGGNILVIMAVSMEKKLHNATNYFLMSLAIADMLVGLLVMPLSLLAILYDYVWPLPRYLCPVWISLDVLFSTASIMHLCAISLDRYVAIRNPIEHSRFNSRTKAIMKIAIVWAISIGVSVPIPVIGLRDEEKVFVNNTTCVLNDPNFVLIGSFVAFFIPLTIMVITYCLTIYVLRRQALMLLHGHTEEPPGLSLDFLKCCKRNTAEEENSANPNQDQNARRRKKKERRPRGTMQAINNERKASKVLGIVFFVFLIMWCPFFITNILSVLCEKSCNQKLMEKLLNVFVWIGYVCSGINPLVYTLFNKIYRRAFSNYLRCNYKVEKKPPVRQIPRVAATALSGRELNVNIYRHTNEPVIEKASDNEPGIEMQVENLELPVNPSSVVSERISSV

Cc1ccc2c(c1)Oc1sc(SC(C)C)cc1C(N1CCN(CC(C)(C)C(=O)O)CC1)=N2 [Example 1, 3-[4-(2-isopropylsulfanyl-8-methyl-thieno[2,3-b][1,5]benzoxazepin-4-yl)piperazin-1-yl]-2,2-dimethyl-propanoic acid]
Ki [1]: 359 nM
Rebound Insomnia, Adj. Mean ([2]; 0.1 mg/kg PO): -0.4 min
REM inhibition, Adj. Mean ([2]; 0.1 mg/kg PO): 0.5 min
Average Sleep Bout, Adj. Mean ([2]; 0.1 mg/kg PO): 1.09 n-fold increase over vehicle controls
Longest Sleep Bout ([2]; 0.1 mg/kg PO): 0.85 n-fold increase over vehicle controls
Cumulative NREM sleep, Adj. Mean ([2]; 0.1 mg/kg PO): 14.6 min
Cumulative Total sleep, Adj. Mean ([2]; 0.1 mg/kg PO): 13.1 min
Locomotor Activity Intensity, Adj. Mean ([2]; 0.1 mg/kg PO): −1.31 LMA counts per minute of EEG-defined wakefulness
Rebound Insomnia, Adj. Mean ([2]; 0.25 mg/kg PO): -1.0 min
REM inhibition, Adj. Mean ([2]; 0.25 mg/kg PO): 1.4 min
Average Sleep Bout, Adj. Mean ([2]; 0.25 mg/kg PO): 1.32 n-fold increase over vehicle controls
Longest Sleep Bout ([2]; 0.25 mg/kg PO): 1.49 n-fold increase over vehicle controls
Cumulative NREM sleep, Adj. Mean ([2]; 0.25 mg/kg PO): 17.8 min
Cumulative Total sleep, Adj. Mean ([2]; 0.25 mg/kg PO): 21.1 min
Locomotor Activity Intensity, Adj. Mean ([2]; 0.25 mg/kg PO): −1.22 LMA counts per minute of EEG-defined wakefulness
Rebound Insomnia, Adj. Mean ([2]; 0.5 mg/kg PO): 4.4 min
REM inhibition, Adj. Mean ([2]; 0.5 mg/kg PO): 6.6 min
Average Sleep Bout, Adj. Mean ([2]; 0.5 mg/kg PO): 1.75 n-fold increase over vehicle controls
Longest Sleep Bout ([2]; 0.5 mg/kg PO): 1.79 n-fold increase over vehicle controls
Cumulative NREM sleep, Adj. Mean ([2]; 0.5 mg/kg PO): 24.1 min
Cumulative Total sleep, Adj. Mean ([2]; 0.5 mg/kg PO): 28.2 min
Locomotor Activity Intensity, Adj. Mean ([2]; 0.5 mg/kg PO): −1.49 LMA counts per minute of EEG-defined wakefulness
Rebound Insomnia, Adj. Mean ([2]; 1 mg/kg PO): 1.5 min
REM inhibition, Adj. Mean ([2]; 1 mg/kg PO): 5.6 min
Average Sleep Bout, Adj. Mean ([2]; 1 mg/kg PO): 1.71 n-fold increase over vehicle controls
Longest Sleep Bout ([2]; 1 mg/kg PO): 1.89 n-fold increase over vehicle controls
Cumulative NREM sleep, Adj. Mean ([2]; 1 mg/kg PO): 30.0 min
Cumulative Total sleep, Adj. Mean ([2]; 1 mg/kg PO): 31.4 min
Locomotor Activity Intensity, Adj. Mean ([2]; 1 mg/kg PO): −4.04 LMA counts per minute of EEG-defined wakefulness
Rebound Insomnia, Adj. Mean ([2]; 3 mg/kg PO): 8.8 min
REM inhibition, Adj. Mean ([2]; 3 mg/kg PO): -1.4 min
Average Sleep Bout, Adj. Mean ([2]; 3 mg/kg PO): 1.75 n-fold increase over vehicle controls
Longest Sleep Bout ([2]; 3 mg/kg PO): 2.17 n-fold increase over vehicle controls
Cumulative NREM sleep, Adj. Mean ([2]; 3 mg/kg PO): 31.5 min
Cumulative Total sleep, Adj. Mean ([2]; 3 mg/kg PO): 32.8 min
Locomotor Activity Intensity, Adj. Mean ([2]; 3 mg/kg PO): −1.86 LMA counts per minute of EEG-defined wakefulness
Rebound Insomnia, Adj. Mean ([2]; 10 mg/kg PO): 2.5 min
REM inhibition, Adj. Mean ([2]; 10 mg/kg PO): -4.4 min
Average Sleep Bout, Adj. Mean ([2]; 10 mg/kg PO): 2.01 n-fold increase over vehicle controls
Longest Sleep Bout ([2]; 10 mg/kg PO): 2.29 n-fold increase over vehicle controls
Cumulative NREM sleep, Adj. Mean ([2]; 10 mg/kg PO): 38.3 min
Cumulative Total sleep, Adj. Mean ([2]; 10 mg/kg PO): 39.1 min
Locomotor Activity Intensity, Adj. Mean ([2]; 10 mg/kg PO): −1.90 LMA counts per minute of EEG-defined wakefulness
Rebound Insomnia, Adj. Mean ([2]; 20 mg/kg PO): 2.1 min
REM inhibition, Adj. Mean ([2]; 20 mg/kg PO): -9.3 min
Average Sleep Bout, Adj. Mean ([2]; 20 mg/kg PO): 1.88 n-fold increase over vehicle controls
Longest Sleep Bout ([2]; 20 mg/kg PO): 1.90 n-fold increase over vehicle controls
Cumulative NREM sleep, Adj. Mean ([2]; 20 mg/kg PO): 40.2 min
Cumulative Total sleep, Adj. Mean ([2]; 20 mg/kg PO): 38.0 min
Locomotor Activity Intensity, Adj. Mean ([2]; 20 mg/kg PO): −0.59 LMA counts per minute of EEG-defined wakefulness
apparent LMI impairment (in words) ([2]; 1 mg/kg PO): statistically significant at that dose
REM sleep inhibition versus threshold value of -10 min. (in words) ([2]; 20 mg/kg PO): exceeded the threshhold value
effect on cumulative NREM sleep time and cumulative total sleep time (in words) ([2]; PO): statistically significant increase
Estimated efficacy dose, Average sleep bout (1.5-fold increase) [2, 3]: 0.33 mg/kg
Estimated efficacy dose, Longest sleep bout (1.75-fold increase) [2, 3]: 0.45 mg/kg
Estimated efficacy dose, NREM accumulation = 30 min. [2, 3]: 1.5 mg/kg
Estimated efficacy dose, Total sleep accumulation = 25 min. [2, 3]: 0.39 mg/kg
rebound insomnia or REM sleep inhibition (in words) ([2]; PO, at up to 10 times the conservative efficacy dose): without statistically significant rebound insomnia or REM sleep inhibition
